Assay results as given in patent publication US20200237759A1, “DOSAGE REGIME AND METHOD FOR TREATING PULMONARY ARTERIAL HYPERTENSION” (Altavant Sciences GmbH, priority 2019, published 2020).

Test: Part 2 MAD plasma pharmacokinetics, BID oral KAR5585 for 14 days
Conditions: for tmax: Median
[1] = 100 mg (Cohort 2) to 400 mg (Cohort 4) BID fed, 4-fold increase in dose
[2] = 100 mg BID fasted, Cohort 1, Day 1 AM, Mean
[3] = 100 mg BID fasted, Cohort 1, Day 14, Mean
[4] = 100 mg BID fed, Cohort 2, Day 1 AM, Mean
[5] = 100 mg BID fed, Cohort 2, Day 1 PM, Geo. Mean
[6] = 100 mg BID fed, Cohort 2, Day 1 PM, Mean
[7] = 100 mg BID fed, Cohort 2, Day 7 AM, Geo. Mean
[8] = 100 mg BID fed, Cohort 2, Day 7 AM, Mean
[9] = 100 mg BID fed, Cohort 2, Day 7 PM, Geo. Mean
[10] = 100 mg BID fed, Cohort 2, Day 14 AM, Geo. Mean
[11] = 100 mg BID fed, Cohort 2, Day 14 AM, Mean
[12] = 100 mg KAR5585 BID, fasted (Part 2, Cohort 1)
[13] = 200 mg BID fed, Cohort 3, Day 1 AM, Geo. Mean
[14] = 200 mg BID fed, Cohort 3, Day 1 PM, Geo. Mean
[15] = 200 mg BID fed, Cohort 3, Day 7 AM, Geo. Mean
[16] = 200 mg BID fed, Cohort 3, Day 7 AM, Mean
[17] = 200 mg BID fed, Cohort 3, Day 7 PM, Geo. Mean
[18] = 200 mg BID fed, Cohort 3, Day 7 PM, Mean
[19] = 200 mg BID fed, Cohort 3, Day 14 AM, Geo. Mean
[20] = 200 mg BID fed, Cohort 3, Day 14 AM, Mean
[21] = 400 mg BID fed, Cohort 4, Day 1 AM, Geo. Mean
[22] = 400 mg BID fed, Cohort 4, Day 1 PM, Geo. Mean
[23] = 400 mg BID fed, Cohort 4, Day 7 AM, Geo. Mean
[24] = 400 mg BID fed, Cohort 4, Day 7 PM, Geo. Mean
[25] = 400 mg BID fed, Cohort 4, Day 7 PM, Mean
[26] = 400 mg BID fed, Cohort 4, Day 14 AM, Geo. Mean
[27] = 400 mg BID fed, Cohort 4, Day 14 AM, Mean

Description: Food effect was to be evaluated in Part 1, Period 2.
Part 2 (MAD): BID doses (separated by approximately 12 hours on Days 1 to 13) and a single AM dose on Day 14. One or more of the MAD Cohort could have been dosed once daily (QD).
Pharmacokinetic data were to be summarized descriptively.

increase in mean AUC0-12, Day 1 [1]: 7.0 fold | increase in mean AUC0-12, Day 14 [1]: 4.6 fold | increase in mean AUC0-24, Day 1 [1]: 6.45 fold | increase in mean AUC0-24, Day 14 [1]: 4.45 fold | increase in mean Cmax, Day 1 [1]: 6.9 fold | increase in mean Cmax, Day 14 [1]: ~4.5 fold | AUC0-12 [2]: 741 ng·h/mL | Cmax [2]: 121 ng/mL | t1/2 [2]: 3.43 h | tmax (100 mg BID fasted, Cohort 1, Day 1 AM): 3.0 h | AUC0-12 [3]: 1280 ng·h/mL | AUC0-24 [3]: 1650 ng·h/mL | Cmax [3]: 194 ng/mL | t1/2 [3]: 18.8 h | tmax (100 mg BID fasted, Cohort 1, Day 14): 3.0 h | t1/2 (100 mg BID fed, Cohort 2, Day 1 AM, Geo. Mean): 4.16 h | AUC0-12 [4]: 470 ng·h/mL | Cmax [4]: 85.9 ng/mL | tmax (100 mg BID fed, Cohort 2, Day 1 AM): 2.0 h | AUC0-12 [5]: 714 ng·h/mL | AUC0-24 [5]: 1160 ng·h/mL | AUC0-∞ [5]: 1090 ng·h/mL | Cmax [5]: 119 ng/mL | AUC0-12 [6]: 748 ng·h/mL | AUC0-24 [6]: 1220 ng·h/mL | tmax (100 mg BID fed, Cohort 2, Day 1 PM): 3.0 h | AUC0-12 [7]: 1050 ng·h/mL | AUC0-∞ [7]: 1380 ng·h/mL | t1/2 [7]: 5.24 h | Cmax [8]: 168 ng/mL | t1/2 [8]: 5.31 h | tmax (100 mg BID fed, Cohort 2, Day 7 AM): 3.0 h | AUC0-12 [9]: 875 ng·h/mL | AUC0-24 [9]: 1930 ng·h/mL | AUC0-∞ [9]: 1700 ng·h/mL | Cmax [9]: 106 ng/mL | t1/2 [9]: 7.91 h | Cmax (100 mg BID fed, Cohort 2, Day 7 PM, Mean): 112 ng/mL | tmax (100 mg BID fed, Cohort 2, Day 7 PM): 6.0 h | RCmax (100 mg BID fed, Cohort 2, Day 14 AM, Day 14/Day 1 accumulation ratio, Geo. Mean): 1.90 | AUC0-12 [10]: 900 ng·h/mL | AUC0-24 [10]: 1220 ng·h/mL | AUC0-∞ [10]: 1780 ng·h/mL | Cmax [10]: 155 ng/mL | t1/2 [10]: 19.0 h | AUC0-12 [11]: 943 ng·h/mL | AUC0-24 [11]: 1270 ng·h/mL | Cmax [11]: 168 ng/mL | t1/2 [11]: 19.6 h | tmax (100 mg BID fed, Cohort 2, Day 14 AM): 2.0 h | time to peak plasma concentrations (range), Day 1 (100 mg KAR5585 BID, Part 2 Cohort 1 (fasted state)): 2.0 to 6.0 h | median tmax Day 14 (100 mg KAR5585 BID, fasted): 3.0 hour postdose | mean peak concentration relative to corresponding peak mean concentration of KAR5585, Day 1 [12]: approximately 7.25 fold | mean peak concentration relative to corresponding peak mean concentration of KAR5585, Day 14 [12]: ~9.1 fold | half-life, Day 14 (100 mg KAR5585 BID, fasted state): 18.8 h | median tmax Day 14 (100 mg KAR5585 BID, fed): 3.0 hour postdose | AUC0-12 [13]: 1620 ng·h/mL | AUC0-∞ [13]: 1980 ng·h/mL | t1/2 [13]: 4.41 h | AUC0-12 (200 mg BID fed, Cohort 3, Day 1 AM, Mean): 1700 ng·h/mL | tmax (200 mg BID fed, Cohort 3, Day 1 AM): 3.0 h | AUC0-24 [14]: 3540 ng·h/mL | AUC0-∞ [14]: 2640 ng·h/mL | Cmax [14]: 307 ng/mL | t1/2 [14]: 5.95 h | AUC0-12 (200 mg BID fed, Cohort 3, Day 1 PM, Mean): 2000 ng·h/mL | tmax (200 mg BID fed, Cohort 3, Day 1 PM): 4.0 h | RCmax (200 mg BID fed, Cohort 3, Day 7 AM, Day 7/Day 1 accumulation ratio, Mean): 1.00 | AUC0-∞ [15]: 2610 ng·h/mL | Cmax [15]: 332 ng/mL | t1/2 [15]: 4.57 h | AUC0-∞ [16]: 2800 ng·h/mL | Cmax [16]: 359 ng/mL | t1/2 [16]: 4.61 h | tmax (200 mg BID fed, Cohort 3, Day 7 AM): 4.0 h | AUC0-12 [17]: 1490 ng·h/mL | AUC0-24 [17]: 3620 ng·h/mL | AUC0-∞ [17]: 2270 ng·h/mL | Cmax [17]: 212 ng/mL | t1/2 [17]: 6.48 h | AUC0-12 [18]: 1540 ng·h/mL | AUC0-24 [18]: 3810 ng·h/mL | AUC0-∞ [18]: 2280 ng·h/mL | Cmax [18]: 222 ng/mL | tmax (200 mg BID fed, Cohort 3, Day 7 PM): 8.0 h | AUC0-12 [19]: 1670 ng·h/mL | AUC0-24 [19]: 2200 ng·h/mL | t1/2 [19]: 24.1 h | AUC0-12 [20]: 1820 ng·h/mL | AUC0-24 [20]: 2380 ng·h/mL | Cmax [20]: 319 ng/mL | t1/2 [20]: 25.0 h | tmax (200 mg BID fed, Cohort 3, Day 14 AM): 3.0 h | AUC0-∞ [21]: 3400 ng·h/mL | t1/2 [21]: 3.71 h | AUC0-∞ (400 mg BID fed, Cohort 4, Day 1 AM, Mean): 3780 ng·h/mL | tmax (400 mg BID fed, Cohort 4, Day 1 AM): 3.0 h | AUC0-∞ [22]: 6860 ng·h/mL | t1/2 [22]: 5.3 h | tmax (400 mg BID fed, Cohort 4, Day 1 PM): 4.0 h | RCmax (400 mg BID fed, Cohort 4, Day 7 AM, Day 7/Day 1 accumulation ratio, Mean): 2.00 | AUC0-∞ [23]: 7480 ng·h/mL | Cmax [23]: 960 ng/mL | t1/2 [23]: 3.89 h | t1/2 (400 mg BID fed, Cohort 4, Day 7 AM, Mean): 3.94 h | tmax (400 mg BID fed, Cohort 4, Day 7 AM): 4.0 h | RAUC0-12 (400 mg BID fed, Cohort 4, Day 7 PM, Day 7/Day 1 accumulation ratio, Geo. Mean): 1.50 | AUC0-12 [24]: 4360 ng·h/mL | AUC0-∞ [24]: 6450 ng·h/mL | Cmax [24]: 574 ng/mL | t1/2 [24]: 5.08 h | AUC0-12 [25]: 4610 ng·h/mL | AUC0-∞ [25]: 6520 ng·h/mL | Cmax [25]: 608 ng/mL | t1/2 [25]: 5.10 h | tmax (400 mg BID fed, Cohort 4, Day 7 PM): 6.0 h | AUC0-12 [26]: 4160 ng·h/mL | AUC0-24 [26]: 5410 ng·h/mL | AUC0-∞ [26]: 8120 ng·h/mL | Cmax [26]: 717 ng/mL | t1/2 [26]: 30.4 h | AUC0-12 [27]: 4350 ng·h/mL | Cmax [27]: 749 ng/mL | t1/2 [27]: 30.6 h | tmax (400 mg BID fed, Cohort 4, Day 14 AM): 3.0 h | tmax Day 7 evening dose (400 mg KAR5585 BID, fed): 6 h | study day by which steady-state plasma levels were achieved (BID oral KAR5585 for 14 days): ≤ 7 days
SMILES: Nc1nc(O[C@H](c2ccc(Cl)cc2-c2ccccc2)C(F)(F)F)cc(N2CCC3(CC2)CN[C@H](C(=O)O)C3)n1 [KAR5417, (S)-8-(2-amino-6-((R)-1-(5-chloro-[1,1′-biphenyl]-2-yl)-2,2,2-trifluoroeth-oxy)pyrimidin-4-yl)-2,8-diazaspiro[4.5]decane-3-carboxylic acid]
